The results in this text go back to article PMC10874388, “Cyclic peptides discriminate BCL-2 and its clinical mutants from BCL-XL by engaging a single-residue discrepancy” (Nature Communications, 2024).

Values joined by “and” are separate entries in the source; they are usually repeats but may differ in a detail not shown here. Equal entries are not always repeated. Starred links: 1 amine or outer side, 2 acyl side, 3 side chain; linkers in the order of their positions; H or OH if unused. Positions of bridges follow the written chain, without caps; N, C: chain ends. Residues, ends and D or L forms follow the SMILES beside them. X1 = O=C(C[*:2])NCCNC(=O)c1ccc(C2=N[C@H](C(=O)[*:1])CS2)cc1

Holding throughout (assay type): cell-based
Test [1] deals with Jurkat cells. Put plainly: Mitochondrial membrane potential (JC-1), flow cytometry and fluorescence microscopy. To be noted: for Q1(%) / Q1(%)/Q3(%) / Q3(%): Figure 6d, 4h, replicate values; for ΔΨm (ratio of red over green fluorescence, Q1/Q3): 4 h treatment, JC-1, flow cytometry, n = 3. As for the experimental part:
For the mitochondrial membrane potential (ΔΨm) analysis, the mitochondrial membrane potential assay kit with JC-1 dye (Beyotime, C2006) was used according to the manufacturer’s protocol. […] The value of ΔΨm was expressed as the ratio of red fluorescence intensity over green fluorescence intensity. After treated with JC-1, fluorescence intensity of Jurkat cells was tested by flow cytometry (BD FACSAria Fusion) and fluorescence microscopy (NIKON Ti-E), respectively. All experiments were performed in triplicate. Statistical analysis was performed using software GraphPad Prism 7.0.

The test system of a further test is RS4:11 cells. Description: Cell viability assay (CellTiter-Glo), RS4:11. To be noted: RS4:11, single wells. As to the method: (§1) The cell lines Jurkat (TIB-152), El4 (TIB-39), Daudi (ccl-213), RS4:11 (crl-1873), A549 (ccl-185), HepG2 (hb-8065) and PANC-1 (crl-1469) were purchased from ATCC (American Type Culture Collection), and MGC-803 (C6582) was purchased from Beyotime (https://www.beyotime.com/product/C6582.htm). […] Daudi and RS4:11 cells were cultured in RPMI-1640 medium (HyClone, SH30809.01) and 10% FBS (Gibco, 10099-141), whereas HepG2, MGC-803 and PANC-1 cells were cultured in MDEM (HyClone, SH30243.01). Cells were maintained at 37 °C under a humidified, 5% (v/v) CO2-containing atmosphere.
(§2) Cell viability was measured using CellTiter-Glo® 2.0 Reagent (Promega, G9242). […] After different inhibitors were added into serum-free medium and cultured for 4 h (RS4:11 for 6 h), FBS were supplemented to 10% and then incubated totally for 24 h or 48 h. Finally, the IC50 values were calculated based on measurements using a microplate reader (Thermo, Varioskan LUX). Statistical analysis was performed using software GraphPad Prism 7.0.
On the technique in general: Cellular ATP, detected with luciferase, serves as a proxy for viable cell number.

In test [2] the test system is Jurkat cells. Put plainly: Apoptosis assay, Annexin V-FITC/PI staining and flow cytometry. As to the method: Jurkat cells were seeded to 6-well plates at a density of 4 ×10^5 cells per well. Cells were incubated in the presence of DMSO, venetoclax at 2.5 μM, cp1-TAT at 30 μM, cp2-TAT at 30 μM, or cp3-TAT at 20 μM in serum-free RPMI medium for 4 h. After being incubated totally for 24 h, cells were washed once with PBS and stained with 100 μL binding buffer containing 5 μL Annexin V-FITC and 10 μL PI for 15 min, followed by addition of 400 μL binding buffer to detect cell apoptosis with FCM (BD FACSAria Fusion). Statistical analysis was performed using software FlowJo V10 and GraphPad Prism 7.0.

For a further test, the system named is A549 cells (control). Put plainly: Cell viability assay (CellTiter-Glo), normal A549 (control). To be noted: TAT control. As for the experimental part:
as §1, §2

The subject of a further test is PANC-1 cells. Description: Cell viability assay (CellTiter-Glo), PANC-1. To be noted: PNAC-1, TAT control. As for the experimental part:
as §1, §2
(§3) Supplementary Figure 10 Functional mechanism of CPs. a. IC50 values of venetoclax against A549, MGC-803 and PANC-1 cells, measured after 48 h treatment by a CellTiter-Glo assay and calculated using Prism 7.0 by a nonlinear-fit method. Data are presented as mean ± s.d.; n= 6 biological replicates. b. […]
(§4) Glo assay. Each data point represents the mean ± s.d. for 6 biological replicates.
(§5) Supplementary Figure 11 IC50 values of different inhibitors against different cell lines. a-d. Viability of A549 (a), HepG2 (b), MGC-803 (c) and PANC-1 (d) cells treated with various concentrations of ABT-199 (venetoclax), and measured after 48 h by a CellTiter-Glo assay. e, f. Viability of Jurkat cells (e) and Daudi cells (f) treated with […]
(§6) after 48 h by a CellTiter-Glo assay. Each data point represents the mean ± s.d. for 6 biological replicates.
(§7) (1 picture or pasted object on this page, not shown here)

In another test the test system is MGC-803 cells. Description: Cell viability assay (CellTiter-Glo), MGC-803. To be noted: TAT control. As to the method: as §1, §2, §3, §4, §5, §6, §7
Test [3] deals with A549 cells overexpressing BCL-2 WT. Description: Cell viability assay, A549 stably overexpressing BCL-2 WT. To be noted: BCL2-WT A549, TAT control. As for the experimental part: as §2
(§8) Lentivirus packaging vectors pMDLg/pRRE, pRSV-Rev, and pVSV-G were obtained from Prof. Han Jiahuai’s lab (Xiamen University). Lentiviruses were produced using 3rd-generation lentivirus packaging plasmids transiently transfected into HEK293T cells with the constructs of interest using 0.25 M CaCl2. Media was changed after 16 h, and supernatants containing infectious virus particles were harvested 24 h later. A second viral harvest was made following a further 24 h incubation with fresh media. Virus containing supernatant was filtered through a […], and stored at 4 °C or −80 °C until being used. Typically, A549 cells were seeded into 10 cm cell culture dishes at 4 ~ 8 × 10^5 cells/cm^2. An equivalent volume of virus containing culture medium was added along with polybrene (Sigma) to a final concentration of 10 µg/mL. Cells were incubated at 37 °C for 20 h, before they were washed and resuspended in fresh culture media. The expression level of BCL-2 was measured by qPCR and western blot methods.

Test [4] concerns A549 cells overexpressing BCL-2 G101V. Put plainly: Cell viability assay, A549 stably overexpressing BCL-2 G101V. To be noted: BCL2/G101V A549, TAT control. As for the experimental part: as §2, §8

`C[C@@H]1NC(=O)[C@@H]2CCCN2C(=O)[C@@H]2CSC(=N2)c2ccc(cc2)C(=O)NCCNC(=O)CSC[C@@H](C(=O)NCC(=O)N[C@@H](CO)C(=O)NCC(=O)N[C@@H](CO)C(=O)N[C@@H](CCCNC(=N)N)C(=O)N[C@@H](CCCCN)C(=O)N[C@@H](CCCCN)C(=O)N[C@@H](CCCNC(=N)N)C(=O)N[C@@H](CCCNC(=N)N)C(=O)N[C@@H](CCC(N)=O)C(=O)N[C@@H](CCCNC(=N)N)C(=O)N[C@@H](CCCNC(=N)N)C(=O)N[C@@H](CCCNC(=N)N)C(N)=O)NC(=O)[C@H](CCC(=O)O)NC(=O)[C@H](Cc2ccc(O)cc2)NC(=O)[C@H](CC(=O)O)NC(=O)[C@H](Cc2c[nH]c3ccccc23)NC(=O)CNC(=O)[C@H](Cc2ccc(O)cc2)NC(=O)[C@H](CCCNC(=N)N)NC1=O` [cp1-TAT] (PARYGWDYECGSGSRKKRRQRRR-NH2; linker N-10 via X1; C-terminus assumed): the “Q1(%)” value with Jurkat cells [1] was 67.4% and 59.1% and 60.9%. Also, the “Q1(%)/Q3(%)” value in the test with Jurkat cells [1] was 5.861 and 3.177 and 3.421. Further, in the test on Jurkat cells [1], the “Q3(%)” value is 11.5% and 18.6% and 17.8%. Also, in the test on Jurkat cells [1] (Jurkat), the “ΔΨm (ratio of red over green fluorescence, Q1/Q3)” value is on record as 4.15. The “Relative ΔΨm by JC-1 fluorescence staining (microscopy)” value with Jurkat cells [1] (Jurkat, 24 h treatment (Supplementary Fig. 13)) is “slightly decreased”. The raw luminescence reading is 483100 and 539500 and 548500 and 508300 and 527200 and 488600 in the test on RS4:11 cells (0.0488281 uM); 528800 and 591800 and 582200 and 559700 and 554700 and 529500 in the test with RS4:11 cells (0.0976562 uM); 524900 and 538800 and 551800 and 528900 and 518500 and 499500 in the test with RS4:11 cells (0.195312 uM); 511700 and 533900 and 533200 and 520400 and 504300 and 479000 with RS4:11 cells (0.390625 uM); 535400 and 544100 and 562800 and 550400 and 519400 and 494800 in the test with RS4:11 cells (0.78125 uM); 520400 and 578500 and 612400 and 550500 and 491200 and 506800 in the test with RS4:11 cells (1.5625 uM). Moreover, the raw luminescence reading was 414000 and 466800 and 497600 and 501300 and 428800 and 513500 with RS4:11 cells (3.125 uM); 401900 and 468400 and 486300 and 500900 and 419400 and 497100 in the test with RS4:11 cells (6.25 uM); 380500 and 444100 and 470000 and 488300 and 390700 and 473300 in the test on RS4:11 cells (12.5 uM); 309300 and 375600 and 407800 and 416800 and 350200 and 401000 with RS4:11 cells (25 uM); 222600 and 265500 and 282300 and 297300 and 246800 and 283000 with RS4:11 cells (50 uM); 63070 and 74540 and 82840 and 89800 and 66010 and 86930 in the test on RS4:11 cells (100 uM). Also, the inhibition rate in the test on RS4:11 cells (0.195312 uM, 0.195312 µM) is 0.825% and -1.8% and -4.26% and 0.0693% and 2% and 5.62%; in the test with RS4:11 cells (12.5 uM, 12.5 µM), 11%; with RS4:11 cells (25 uM, 25 µM), 42% and 29% and 23% and 21% and 34% and 24%; with RS4:11 cells (50 uM, 50 µM), 58% and 50% and 47% and 44% and 53%; with RS4:11 cells (100 uM, 100 µM) it was 88% and 86% and 84% and 83%. For the same compound, the “cell apoptosis(%)” value with Jurkat cells [2] (Figure 6b, replicate values) is 66.77% and 60.2%. In the test with Jurkat cells [2] (Jurkat, 24 h, 30 μM), the “Proportion of apoptotic cells” value is listed as 66.77%.
For TAT (GSGSRKKRRQRRR), the “average (raw viability reading)” value in the test with A549 cells (control) (A549) was determined as 422183; in the test with PANC-1 cells, 639133; with MGC-803 cells, 627500. Also, the inhibition rate in the test on A549 cells (control) (A549, fraction, replicates) is 0.1678 and 0.2197 and 0.2282 and 0.2003 and 0.1961 and 0.2135; in the test with PANC-1 cells (fraction, replicates), 0.2393 and 0.182 and 0.1596 and 0.1507 and 0.1102 and 0.1321; in the test on MGC-803 cells (fraction, replicates), 0.09219 and 0.04796 and 0.06436 and 0.05774 and 0.0275 and 0.04676. The raw viability reading is 409500 and 424300 and 426500 and 417300 and 441500 and 414000 in the test with A549 cells (control) (A549, replicates); 580400 and 624100 and 641200 and 648000 and 678900 and 662200 in the test on PANC-1 cells (replicates); 622000 and 626400 and 646500 and 633700 and 603500 and 632900 in the test on MGC-803 cells (replicates). The “luminescence reading (raw, replicate wells)” value with A549 cells (control) (control A549) was 640800 and 544000 and 632800 and 539700 and 559000 and 590400; in test [3], 525300 and 568300 and 525100 and 556600 and 515500 and 559500; in test [4], 540600 and 529300 and 534000 and 526600 and 523000 and 507100. The “luminescence reading, everage” value is reported as 584450 in the test on A549 cells (control) (control A549, mean of 6 wells); 541717 in test [3] (mean of 6 wells); 526767 in test [4] (mean of 6 wells). In addition, in the test on Jurkat cells [1], the “Q1(%)” value is 92.3% and 93.6% and 94.9%. The “Q1(%)/Q3(%)” value in the test on Jurkat cells [1] is 22.1343 and 27.3684 and 32.6117. Besides, the “Q3(%)” value in the test on Jurkat cells [1] was 4.17% and 3.42% and 2.91%. Moreover, the “ΔΨm (ratio of red over green fluorescence, Q1/Q3)” value with Jurkat cells [1] (Jurkat) came out at 27.37.
